Results on 73 compounds are retold here after patent US20210198277A1, “AMINE-SUBSTITUTED ARYL OR HETEROARYL COMPOUNDS” (Epizyme, Inc., priority 2016, published 2021).

pIC50: −log10 of the molar value.

The assay has as its target T1, human EHMT2 913-1193 (Homo sapiens, UniProt Q96KQ7).
T1 construct: recombinant purified human EHMT2 913-1193, Viva; purchased Viva
T1 sequence (Q96KQ7 913-1193): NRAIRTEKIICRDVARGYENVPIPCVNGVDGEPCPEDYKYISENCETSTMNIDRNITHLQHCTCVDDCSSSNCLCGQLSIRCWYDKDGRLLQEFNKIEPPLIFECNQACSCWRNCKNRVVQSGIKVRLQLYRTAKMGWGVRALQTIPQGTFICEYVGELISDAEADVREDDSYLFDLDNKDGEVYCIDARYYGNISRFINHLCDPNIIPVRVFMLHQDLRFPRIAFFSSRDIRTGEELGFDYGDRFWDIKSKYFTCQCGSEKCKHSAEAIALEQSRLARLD
Nature of the assay: EHMT2 enzyme assay on histone peptide substrate (EHMT2 PEP). In kind it is biochemical. The settings on record: Table VI; read-out: EHMT2 PEP IC50. Put shortly: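 Compounds (10-point, 3-fold dilutions, top 50 μM final, 2% DMSO) preincubated 30 min with 0.031 nM EHMT2 in 20 mM Bicine pH 7.5, 0.002% Tween 20, 0.005% gelatin, 1 mM TCEP. Biotinylated histone peptide methylated with ^3H-SAM 60 min at room temperature. Quenched with unlabeled SAM; product captured on streptavidin Flashplate, scintillation counted.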

Regarding `CNc1cc(C)nc(Nc2ccc(OC)c(OCC(O)CN3CCCC3)c2)n1` (stereo in doubt) [Compound 906, (2S)-1-(2-methoxy-5-[[4-methyl-6-(methylamino)pyrimidin-2-yl]amino]phenoxy)-3-(pyrrolidin-1-yl)propan-2-ol], the pIC50 is greater than 7.00.

In the case of `COc1cnc(Nc2cccc3[nH]nnc23)cc1OCCCN1CCCC1` [Compound 619], the negative logarithm of the IC50 (pIC50) is less than 5.00.

For `CCN1CC(COc2cc(Nc3cccn4cnnc34)ncc2OC)C1` [Compound 620], the pIC50 was less than 5.00.

For `CNc1cc(C)nc(Nc2c[nH]c(=O)c(OCCCN3CCCC3)c2)n1` [Compound 621], the pIC50 was less than 5.00.

Take `CNc1cc(C)nc(Nc2cc(OCCCN3CCCC3)c3nncn3c2)n1` [Compound 622]: the pIC50 is 5.00 to 6.00.

For `CNc1cc(C)nc(Nc2cc(OCCCN3CCCC3)c3ncnn3c2)n1` [Compound 623], the negative logarithm of the IC50 (pIC50) was 5.00 to 6.00.

In the case of `CNc1cc(C)nc(Nc2cc(OCCCN3CCCC3)c3[nH]nnc3c2)n1` [Compound 624], the pIC50 is 6.00 to 7.00.

Turning to `COc1cc2c(C3CCN(C)CC3)cc(N3CCCC3)nc2cc1OCCCN1CCCC1` [Compound 625], the negative-log IC50 (pIC50) is greater than 7.00.

With `COc1cc2c(C3CCN([C@H]4CCOC4)CC3)cc(C)nc2cc1OCCCN1CCCC1` [Compound 864], the pIC50 is greater than 7.00.

With `CCNc1cc(C2CCOCC2)c2cc(OC)c(OCCCN3CCCC3)cc2n1` [Compound 865], the pIC50 is greater than 7.00.

Take `CNc1cc(C2CCN([C@@H]3CCOC3)CC2)c2cc(OC)c(OCCCN3CCCC3)cc2n1` [Compound 866]: the pIC50 was greater than 7.00.

Take `CNc1cc(C2CCN([C@H]3CCOC3)CC2)c2cc(OC)c(OCCCN3CCCC3)cc2n1` [Compound 867]: the pIC50 was greater than 7.00.

As to `COc1ccc(Nc2nc(C)cc(C3CCOCC3)n2)cc1OCCCN1CCCC1` [Compound 870], the negative-log IC50 (pIC50) was less than 5.00.

With `CNc1cc(C)nc(Nc2ccc(OC)c(C(=O)NCc3ccccc3)c2)n1` [Compound 871], the pIC50 is less than 5.00.

`CNc1cc(C)nc(Nc2ccc(OC)c(C(=O)NC3CCN(C)CC3)c2)n1` [Compound 873]: the pIC50 is less than 5.00.

Regarding `CNc1cc(C)nc(Nc2ccc(CNC(=O)c3ccccc3)c(OC)c2)n1` [Compound 876], the pIC50 is less than 5.00.

As to `CNc1cc(C)nc(Nc2ccc(C(=O)NCc3ccccc3)c(OC)c2)n1` [Compound 877], the negative-log IC50 (pIC50) is less than 5.00.

Regarding `CNc1cc(C)nc(Nc2cnc(OC)c(OC[C@@H](O)CN3CCCC3)c2)n1` [Compound 881], the pIC50 was 6.00 to 7.00.

For the compound `CNc1cc(C)nc(Nc2cnc(OC)c(OC[C@H](O)CN3CCCC3)c2)n1` [Compound 882], the negative logarithm of the IC50 (pIC50) was 6.00 to 7.00.

In the case of `COc1ncc(Nc2nc(C)cc(NCC3COC3)n2)cc1OC[C@@H](O)CN1CCCC1` [Compound 883], the pIC50 was less than 5.00.

As for `COc1ncc(Nc2nc(C)cc(NCC3COC3)n2)cc1OC[C@H](O)CN1CCCC1` [Compound 884], the pIC50 was less than 5.00.

Take `CNc1cc(C)nc(Nc2cc(OC[C@@H](O)CN3CCCC3)c(OC)cn2)n1` [Compound 885]: the negative-log IC50 (pIC50) was 5.00 to 6.00.

Turning to `CNc1cc(C)nc(Nc2cc(OC[C@H](O)CN3CCCC3)c(OC)cn2)n1` [Compound 886], the pIC50 was 5.00 to 6.00.

Turning to `CNC(=O)CCNc1cc(C)nc(Nc2cnc(OC)c(OCCCN3CCCC3)c2)n1` [Compound 887], the pIC50 was 6.00 to 7.00.

As to `CNC(=O)N1CC(CNc2cc(C)nc(Nc3cnc(OC)c(OCCCN4CCCC4)c3)n2)C1` [Compound 888], the negative logarithm of the IC50 (pIC50) is 6.00 to 7.00.

Consider `CNc1cc(C)nc(Nc2ccc(OC)c(OCCCc3nc(Cl)c[nH]3)c2)n1` [Compound 890], for which the negative logarithm of the IC50 (pIC50) was less than 5.00.

Regarding `CNc1cc(C)nc(Nc2ccc(OC)c(OCCCc3nc(Cl)cn3C)c2)n1` [Compound 891], the negative logarithm of the IC50 (pIC50) was less than 5.00.

For the compound `CNS(=O)(=O)CCNc1cc(C)nc(Nc2ccc(OC)c(OCCCN3CCCC3)c2)n1` [Compound 892], the negative logarithm of the IC50 (pIC50) was greater than 7.00.

As for `COc1ccc(Nc2nc(C)cc(NCCS(=O)(=O)N(C)C)n2)cc1OCCCN1CCCC1` [Compound 893], the pIC50 was 6.00 to 7.00.

With `COc1cnc(Nc2cc(NCC3COC3)cnn2)cc1OCCCN1CCCC1` [Compound 894], the pIC50 was 6.00 to 7.00.

Regarding `COc1cc2cc(C#N)c(C)nc2cc1OCCCN1CCCC1` [Compound 895], the pIC50 is less than 5.00.

As for `COc1cc2cc(F)c(C)nc2cc1OCCCN1CCCC1` [Compound 896], the negative-log IC50 (pIC50) was less than 5.00.

With `CNc1nc2cc(OCCCN3CCCC3)c(OC)cc2cc1F` [Compound 897], the pIC50 was less than 5.00.

Turning to `CNC(=O)C1CCN(c2cc3nc(NC)cc(C)c3cc2OC)C1` (stereo not shown) [Compound 900], the pIC50 is less than 5.00.

As for `CNc1cc(C2CCOCC2)c2cc(OC)c(OCCCN3CC(O)C3)cc2n1` [Compound 902], the pIC50 is greater than 7.00.

On to `CNc1nc2cc(OCCCN3CCCC3)c(OC)cc2cc1Cl` [Compound 903], for which the negative logarithm of the IC50 (pIC50) was 5.00 to 6.00.

On to `CNc1cc(C)nc(Nc2ccc(OC)c(C#CCN3CCOCC3)c2)n1` [Compound 904], for which the negative-log IC50 (pIC50) is less than 5.00.

On to `CNc1cc(C)nc(Nc2ccc(OC)c(OC[C@@H](O)CN3CCCC3)c2)n1` [Compound 905], for which the negative logarithm of the IC50 (pIC50) was 6.00 to 7.00.

As for `CNc1ccnc(Nc2ccc(OC)c(OC[C@@H](O)CN3CCC3)c2)n1` [Compound 907], the pIC50 is 5.00 to 6.00.

In the case of `CNc1ccnc(Nc2ccc(OC)c(OC[C@H](O)CN3CCC3)c2)n1` [Compound 908], the pIC50 is greater than 7.00.

Turning to `CNc1ccnc(Nc2cnc(OC)c(OC[C@@H]3CCN(C)C3)c2)n1` [Compound 912], the negative logarithm of the IC50 (pIC50) was 6.00 to 7.00.

Turning to `CNc1ccnc(Nc2cnc(OC)c(OCCCN3CCC3)c2)n1` [Compound 914], the negative logarithm of the IC50 (pIC50) was 6.00 to 7.00.

As to `CNCCCOc1cc(Nc2nccc(NC)n2)ccc1OC` [Compound 916], the pIC50 was 6.00 to 7.00.

As for `CNCCCOc1cc(Nc2nccc(NC)n2)cnc1OC` [Compound 917], the negative logarithm of the IC50 (pIC50) is 5.00 to 6.00.

In the case of `CNC[C@@H](O)COc1cc(Nc2nccc(NC)n2)cnc1OC` [Compound 918], the pIC50 is 5.00 to 6.00.

`CNc1ccnc(Nc2ccc(OC)c(OC[C@@H](CN3CCCC3)OC)c2)n1` [Compound 919]: the negative logarithm of the IC50 (pIC50) is 5.00 to 6.00.

`CNc1ccnc(Nc2ccc(OC)c(OC[C@H](CN3CCCC3)OC)c2)n1` [Compound 920]: the negative-log IC50 (pIC50) was 6.00 to 7.00.

Consider `CNC[C@H](COc1cc(Nc2nccc(NC)n2)ccc1OC)OC` [Compound 921], for which the pIC50 is less than 5.00.

Regarding `CNC[C@@H](COc1cc(Nc2nccc(NC)n2)ccc1OC)OC` [Compound 922], the pIC50 was 5.00 to 6.00.

Take `CCN1CC[C@@H](COc2cc(Nc3nccc(NC)n3)ccc2OC)C1` [Compound 927]: the negative logarithm of the IC50 (pIC50) is 6.00 to 7.00.

`CNc1ccnc(Nc2ccc(OC)c(OC[C@@H]3CCN(C4CC4)C3)c2)n1` [Compound 928]: the negative logarithm of the IC50 (pIC50) was 6.00 to 7.00.

As for `CNc1ccnc(Nc2ccc(OC)c(OC[C@H]3CN(C)CCO3)c2)n1` [Compound 931], the pIC50 was less than 5.00.

In the case of `CCN1CCO[C@@H](COc2cc(Nc3nccc(NC)n3)ccc2OC)C1` [Compound 932], the negative logarithm of the IC50 (pIC50) was less than 5.00.

Turning to `CNc1ccnc(Nc2ccc(OC)c(OC[C@H]3CNCCO3)c2)n1` [Compound 933], the negative-log IC50 (pIC50) is less than 5.00.

`CNc1ccnc(Nc2ccc(OC)c(OC[C@@H]3CN(C)CCO3)c2)n1` [Compound 936]: the pIC50 was less than 5.00.

`CCN1CCO[C@H](COc2cc(Nc3nccc(NC)n3)ccc2OC)C1` [Compound 937]: the negative-log IC50 (pIC50) is less than 5.00.

For the compound `CNc1ccnc(Nc2ccc(OC)c(OC[C@@H]3CNCCO3)c2)n1` [Compound 938], the pIC50 is less than 5.00.

On to `CNc1ccnc(Nc2ccc(OC)c(OC[C@@H](C)CN3CCC3)c2)n1` [Compound 943], for which the pIC50 was 5.00 to 6.00.

For `CNc1ccnc(Nc2ccc(OC)c(OC[C@H](C)CN3CCC3)c2)n1` [Compound 945], the pIC50 was 6.00 to 7.00.

With `CCN1CC[C@@H](COc2cc(Nc3nc(C)cc4[nH]ncc34)ncc2OC)C1` [Compound 947], the negative logarithm of the IC50 (pIC50) was greater than 7.00.

Regarding `CNc1cc(C)nc(Nc2cnc(OC)c(OCCCN3CCC3)c2)n1` [Compound 949], the negative logarithm of the IC50 (pIC50) is 6.00 to 7.00.

As to `COc1cc2c(C3CCN(C)CC3)nc(N3CCCC3)nc2cc1OCCCN1CC(O)C1` [Compound 950], the negative logarithm of the IC50 (pIC50) was 6.00 to 7.00.

Take `CCN1CC(COc2cc3nc(NC)nc(C4CCN(C)CC4)c3cc2OC)C1` [Compound 951]: the negative logarithm of the IC50 (pIC50) was 6.00 to 7.00.

`CNc1nc(C2=CC(C)(C)NC(C)(C)C2)c2cc(OC)c(OCCCN3CCCC3)cc2n1` [Compound 961]: the negative logarithm of the IC50 (pIC50) was 5.00 to 6.00.

For the compound `CNc1cc(C)nc(Nc2ccc(OC)c(OC[C@H](O)CNC3CCC3)c2)n1` [Compound 962], the negative logarithm of the IC50 (pIC50) is 6.00 to 7.00.

In the case of `CNc1cc(C)nc(Nc2cnc(OC)c(OC[C@H](O)CN3CCC3)c2)n1` [Compound 963], the pIC50 was greater than 7.00.

Regarding `CNCCNCc1cc(Nc2nc(C)cc(NC)n2)ccc1OC` [Compound 964], the pIC50 was 6.00 to 7.00.

As to `CNc1cc(C)nc(Nc2ccc(OC)c(CNCCN3CCC3)c2)n1` [Compound 965], the pIC50 was greater than 7.00.

Consider `CNc1ccnc(Nc2cnc(OC)c(OC[C@@H]3CCN(C4CCC4)C3)n2)n1` [Compound 974], for which the pIC50 was 6.00 to 7.00.

Take `CNc1cc(C)nc(Nc2ccc(OC)c(OC[C@H](O)CN3CC(C)C3)c2)n1` [Compound 985]: the pIC50 was 6.00 to 7.00.

Take `CNc1cc(C)nc(Nc2ccc(OC)c(OC[C@H](O)CN3CC(F)C3)c2)n1` [Compound 986]: the pIC50 is 6.00 to 7.00.

As to `CNc1cc(C)nc(Nc2ccc(OC)c(CNCCN(C)C)c2)n1` [Compound 990], the pIC50 is greater than 7.00.

Take `CNc1ccnc(Nc2ccc(OC)c(OCC(C)(O)CN3CCC3)c2)n1` (stereo not shown) [Compound 1005]: the pIC50 was 5.00 to 6.00.
